# pEC50: −log10 of the molar value.
# Legend:
# [1] = tested on: 786-O (renal adenocarcinoma) cell line; test: CellTiter-Glo luminescent cell viability assay, 786-O; type: cell-based, human; details: Homo sapiens, 786-0; for pEC50: 786-O cell line, 72 h incubation, CellTiter-Glo, read-out: EC50, growth inhibition of 786-O; for viability at 4 µM / viability at 10 µM: 786-O, 72 h; for viability at 4 µM: compound at 4 μM; for viability at 10 µM: compound at 10 μM
# Procedure, shortened: (§1)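 72 h compound exposure, 37 °C, 5% CO2, 10% FBS medium; ATP luminescence read after 30 min RT equilibration. Viability as % of H2O/DMSO diluent control; EC50 = dose giving 50% of control signal. Duplicate points minimum.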
# [2] = tested on: HepG2 (hepatocellular carcinoma) cell line; test: CellTiter-Glo luminescent cell viability assay, HepG2; type: cell-based, human; details: Homo sapiens; for viability at 4 µM / viability at 10 µM: HepG2, HepG, 72 h; for viability at 4 µM: compound at 4 μM; for viability at 10 µM: compound at 10 μM; for pEC50: HepG2 cell line, 72 h incubation, CellTiter-Glo, read-out: EC50, growth inhibition of HepG2
# Procedure, shortened: (§2)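 Cells were cultured at 37 °C, 5% CO2 with 10% FBS; adherent lines were plated overnight, suspension MOLM-14 plated 1 h before dosing. Compounds in H2O or DMSO were added at various concentrations for 72 h, and viability was read by luminescence. EC50 is the dose reducing signal to 50% of diluent control.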
# [3] = tested on: PANC-1 (prancreatic carcinoma) cell line; test: CellTiter-Glo luminescent cell viability assay, PANC-1; type: cell-based; details: Homo sapiens; for viability at 4 µM: PANC-1, 4 μM; for viability at 4 µM / viability at 10 µM: 72 h, % of signal of diluent-treated cultures; for viability at 10 µM: PANC-1, 10 μM; for pEC50: PANC-1 cell line, 72 h incubation, CellTiter-Glo, read-out: EC50 (growth inhibition assay of PANC-1 cell line)
# Procedure, shortened: as §2
# [4] = tested on: Huh7 (hepatocellular carcinoma) cell line; test: CellTiter-Glo luminescent cell viability assay, Huh7; type: cell-based, human; details: Homo sapiens, Huh-7; for viability at 4 µM: Huh7, compound at 4 μM; for viability at 4 µM / viability at 10 µM: 72 h; for viability at 10 µM: Huh7, compound at 10 μM; for pEC50: Huh7 cell line, 72 h incubation, CellTiter-Glo, read-out: EC50, growth inhibition of Huh7
# Procedure, shortened: as §2
# [5] = tested on: HCT-116 (colorectal carcinoma) cell line; test: CellTiter-Glo luminescent cell viability assay, HCT-116; type: cell-based, human; details: Homo sapiens; for viability at 4 µM: HCT-116, compound at 4 μM; for viability at 4 µM / viability at 10 µM: 72 h; for viability at 10 µM: HCT-116, compound at 10 μM; for pEC50: HCT-116 cell line, 72 h incubation, CellTiter-Glo, read-out: EC50, growth inhibition of HCT-116
# Procedure, shortened: as §1
# [6] = tested on: MOLM-14 (acute myeloid leukemia) cell line; test: CellTiter-Glo luminescent cell viability assay, MOLM-14; type: cell-based, human; details: Homo sapiens; for viability at 4 µM: MOLM-14, compound at 4 μM; for viability at 4 µM / viability at 10 µM: 72 h; for viability at 10 µM: MOLM-14, compound at 10 μM; for pEC50: MOLM-14 cell line, 72 h incubation, CellTiter-Glo, read-out: EC50, growth inhibition of MOLM-14
# Procedure, shortened: as §2
# [7] = tested on: A375 (malignant melanoma) cell line; test: CellTiter-Glo luminescent cell viability assay, A375; type: cell-based, human; details: Homo sapiens, A-375; for viability at 4 µM: A375, compound at 4 μM; for viability at 4 µM / viability at 10 µM: 72 h; for viability at 10 µM: A375, compound at 10 μM; for pEC50: A375 cell line, 72 h incubation, CellTiter-Glo, read-out: EC50, growth inhibition of A375
# Procedure, shortened: as §1
Compound,pEC50 [1],pEC50 [2],pEC50 [4],pEC50 [5],pEC50 [6],pEC50 [7],viability at 4 µM [1] [%],viability at 10 µM [1] [%],viability at 4 µM [2] [%],viability at 10 µM [2] [%],viability at 4 µM [3] [%],viability at 10 µM [3] [%],viability at 4 µM [4] [%],viability at 10 µM [4] [%],viability at 4 µM [5] [%],viability at 10 µM [5] [%],viability at 4 µM [6] [%],viability at 10 µM [6] [%],viability at 4 µM [7] [%],viability at 10 µM [7] [%],other results
"N#Cc1c(NCc2ccc(Cl)cc2)nc2ccccc2c1N1CCC(NC2CCCC2)CC1 [Compound 3178CN, 2-(4-chlorobenzylamino)-3-cyano-4-[4-(cyclopentylamino)piperidin-1-yl]quinoline]",5.30 to 6.30,5.30 to 6.30,5.30 to 6.30,5.30 to 6.30,5.30 to 6.30,5.30 to 6.30,1.3,0.5,6,0.5,85.8,0.8,58.8,0.6,0.3,0.4,90.4,0.7,0.4,0.5,pEC50 [3]: 5.00 to 5.30
"N#Cc1c(NCc2ccc(Cl)cc2)nc2ccccc2c1N1CCC(NC2CCOCC2)CC1 [Compound 3180CN, 2-(4-chlorobenzylamino)-3-cyano-4-{4-[(tetrahydro-2H-pyran-4-yl)amino]piperidin-1-yl}quinoline]",5.00 to 5.30,5.00 to 5.30,5.00 to 5.30,5.00 to 5.30,5.00 to 5.30,5.00 to 5.30,69.7,0.4,78.4,0.4,94.9,58.9,76.5,0.4,59.5,0.2,92.3,22.7,88.6,0.3,pEC50 [3]: 5.00 to 5.30
"CN(C)C1CCN(c2c(C#N)c(NCc3ccc(Cl)cc3)nc3ccccc23)CC1 [Compound 3184CN, 2-(4-chlorobenzylamino)-3-cyano-4-[4-(dimethylamino)piperidin-1-yl]quinoline]",5.30 to 6.30,5.30 to 6.30,5.00 to 5.30,5.30 to 6.30,5.30 to 6.30,5.30 to 6.30,54.1,0.7,72.9,0.7,90.7,24.1,77.4,0.6,60.5,0.5,71.8,0.6,59.5,0.5,pEC50 [3]: 5.00 to 5.30
"N#Cc1c(NCc2ccc(Cl)cc2)nc2ccccc2c1N1CCC(N)C1 (stereo not shown) [Compound 3190CN, 2-(4-chloro-benzylamino)-3-cyano-4-[3-amino-pyrrolidin-1-yl]quinoline]",5.00 to 5.30,5.00 to 5.30,5.00 to 5.30,5.00 to 5.30,5.00 to 5.30,5.00 to 5.30,90.6,1.6,95.5,16,93.7,56.1,92.7,1.3,75.2,0.4,78.1,2.1,87.3,0.8,
"CNC1CCN(c2c(C#N)c(NCc3ccc(Cl)cc3)nc3ccccc23)C1 (stereo not shown) [Compound 3192CN, 2-(4-chloro-benzylamino)-3-cyano-4-[3-(methylamino)pyrrolidin-1-y]quinoline]",5.30 to 6.30,5.30 to 6.30,5.30 to 6.30,5.30 to 6.30,5.00 to 5.30,5.30 to 6.30,0.4,0.2,59.5,0.4,77.1,1.5,78,0.4,57.3,0.2,0.6,0.3,104,0.4,pEC50 [3]: 5.00 to 5.30

# Now from value to molecule, other results behind:
pEC50 [1],pEC50 [2],pEC50 [4],pEC50 [5],pEC50 [6],pEC50 [7],Compound,viability at 4 µM [1] [%],viability at 10 µM [1] [%],viability at 4 µM [2] [%],viability at 10 µM [2] [%],viability at 4 µM [3] [%],viability at 10 µM [3] [%],viability at 4 µM [4] [%],viability at 10 µM [4] [%],viability at 4 µM [5] [%],viability at 10 µM [5] [%],viability at 4 µM [6] [%],viability at 10 µM [6] [%],viability at 4 µM [7] [%],viability at 10 µM [7] [%],other results
5.30 to 6.30,5.30 to 6.30,5.30 to 6.30,5.30 to 6.30,5.30 to 6.30,5.30 to 6.30,"N#Cc1c(NCc2ccc(Cl)cc2)nc2ccccc2c1N1CCC(N)CC1 [Compound 3170CN, 2-(4-chlorobenzylamino)-3-cyano-4-(4-aminopiperidin-1-yl)quinoline]",36.5,0.4,0.6,0.3,89.6,0.6,79.4,0.4,0.7,0.2,84.2,0.4,0.5,0.3,pEC50 [3]: 5.00 to 5.30
5.30 to 6.30,5.30 to 6.30,5.30 to 6.30,5.30 to 6.30,5.30 to 6.30,5.30 to 6.30,"CNC1CCN(c2c(C#N)c(NCc3ccc(Cl)cc3)nc3ccccc23)CC1 [Compound 3172CN, 2-(4-chlorobenzylamino)-3-cyano-4-[4-(methylamino)piperidin-1-yl]quinoline]",0.5,0.3,0.5,0.4,56.4,0.5,30.7,0.4,0.2,0.1,0.5,0.4,0.4,0.3,pEC50 [3]: 5.00 to 5.30
5.30 to 6.30,5.30 to 6.30,5.30 to 6.30,5.30 to 6.30,5.30 to 6.30,5.30 to 6.30,"CC(C)NC1CCN(c2c(C#N)c(NCc3ccc(Cl)cc3)nc3ccccc23)CC1 [Compound 3174CN, 2-(4-chlorobenzylamino)-3-cyano-4-[4-(iso-propylamino)piperidin-1-yl]quinoline]",3.6,0.2,0.5,0.2,84.8,0.6,62.9,0.3,0.3,0.1,24.4,0.3,0.3,0.2,pEC50 [3]: 5.00 to 5.30
6.30 to 7.30,5.30 to 6.30,5.30 to 6.30,5.30 to 6.30,5.30 to 6.30,5.30 to 6.30,"CN1CCC(NC2CCN(c3c(C#N)c(NCc4ccc(Cl)cc4)nc4ccccc34)CC2)CC1 [Compound 3182CN, 2-(4-chlorobenzylamino)-3-cyano-4-{4-[(1-methylpiperidin-4-yl)amino]piperidin-1-yl}quinoline]",0.6,0.4,0.5,0.3,0.8,0.5,0.6,0.4,0.5,0.3,0.6,0.4,0.5,0.4,
5.30 to 6.30,5.30 to 6.30,5.30 to 6.30,5.30 to 6.30,5.30 to 6.30,5.30 to 6.30,"CN1CCN(C2CCN(c3c(C#N)c(NCc4ccc(Cl)cc4)nc4ccccc34)CC2)CC1 [Compound 3188CN, 2-(4-chlorobenzylamino)-3-cyano-4-[4-(4-methylpiperazin-1-yl)piperidin-1-yl]quinoline]",64,0.5,82.7,0.6,91.6,3.5,85.2,0.6,42.9,0.5,108,0.7,52.8,0.4,pEC50 [3]: 5.00 to 5.30

# Reference: patent US10577362B2, “Substituted 2, 4-diamino-quinoline derivatives for use in the treatment of proliferative diseases” (GENOSCIENCE PHARMA, priority 2016, dated 2020)
